In ChEMBL document CHEMBL1148982, “Novel cytotoxic thiodiketopiperazine derivatives from a Tilachlidium sp” (2004):

System: P388
Assay: Cytotoxicity against mouse P388 cells after 1 to 11 days by MTT assay
Type: functional
Conditions: read-out: ID50 (the source's name)

Compound | IC50 [nM]
CN1C(=O)[C@]23SSS[C@]1(CO)C(=O)N2[C@H]1Nc2ccccc2[C@@]1(c1c[nH]c2ccccc12)[C@@H]3O | 250
CS[C@@]1(CO)C(=O)N2[C@H]3Nc4ccccc4[C@@]3(c3c[nH]c4ccccc34)[C@H](O)[C@]2(SC)C(=O)N1C [T988 B] | 2180
CN1C(=O)[C@]23SS[C@]1(CO)C(=O)N2[C@H]1Nc2ccccc2[C@@]1(c1c[nH]c2ccccc12)[C@@H]3O [T988 C] | 560
